# Key:
# pERK in H727 cells = assay: Inhibition of KRas phosphorylation of ERK (Cisbio HTRF pERK assay); details: Homo sapiens, NCI-H727, read-out: Inhibition (HTRF IC50) of KRas-mediated Phosphorylation of ERK, H727
# pERK in MKN1 cells = assay: as above; details: Homo sapiens, MKN-1, 3 h, read-out: Inhibition (HTRF IC50) of KRas-mediated Phosphorylation of ERK, MKN1
# pERK in HCT116 cells = assay: as above; details: Homo sapiens, HCT-116, read-out: Inhibition (HTRF IC50) of KRas-mediated Phosphorylation of ERK, HCT116
# KRas G12R = KRas G12R (Homo sapiens, UniProt P01116, G12R); assay: biochemical;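 also: TR-FRET displacement assay of compound binding to KRas, read after one hour at room temperature, potency from a four-parameter fit of percent-of-control values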
# Procedure: (§2) The ability of a compound to bind to KRas was measured using a TR-FRET displacement assay. […] After a 60-minute incubation at room temperature, the reaction was measured using a BMG LABTECH CLARIO star Plus via TR-FRET. […] The POC values were fit to a 4-parameter IC50 equation and the IC50 value reported.
# pERK in A549 cells = assay: Inhibition of KRas phosphorylation of ERK (Cisbio HTRF pERK assay); details: Homo sapiens, A549, read-out: Inhibition (HTRF IC50) of KRas-mediated Phosphorylation of ERK, A549
# KRas G12D = KRas G12D (Homo sapiens, UniProt P01116, G12D); assay: biochemical;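 also: TR-FRET displacement binding assay on KRas, read after a one-hour incubation at room temperature, IC50 fitted from percent-of-control values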
# Procedure: as §2
# pERK in ASPC1 cells = assay: Inhibition of KRas phosphorylation of ERK (Cisbio HTRF pERK assay); details: Homo sapiens, ASPC1, read-out: Inhibition (HTRF IC50) of KRas-mediated Phosphorylation of ERK, AsPC-1
# [1] = test system: phospho-ERK in NCI-H727 (G12V) cells; assay: Inhibition of KRas-mediated phosphorylation of ERK (in-cell western); assay type: cell-based; details: Homo sapiens, NCI-H727, 3 h, 3 hours compound, phospho-ERK normalized to GAPDH
# Outline: (§1)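 Following fixation in formaldehyde and permeabilization in cold methanol, ERK phosphorylated at Thr202/Tyr204 was quantified against GAPDH.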
# [2] = test system: phospho-ERK in MKN1 (WTdep) cells; assay: as above; assay type: cell-based; details: Homo sapiens, MKN-1, 3 hours compound, phospho-ERK normalized to GAPDH
# Outline: as §1
# [3] = test system: phospho-ERK in A549 (G12S) cells; assay: as above; assay type: cell-based; details: Homo sapiens, 3 hours compound, phospho-ERK normalized to GAPDH
# Outline: as §1
# [4] = test system: phospho-ERK in HCT116 (G13D) cells; assay: as above; assay type: cell-based; details: Homo sapiens, HCT-116, 3 hours compound, phospho-ERK normalized to GAPDH
# Outline: as §1
# [5] = test system: phospho-ERK in AsPC-1 (G12D) cells; assay: as above; assay type: cell-based; details: Homo sapiens, ASPC1, 3 h, 3 hours compound, phospho-ERK normalized to GAPDH
# Outline: as §1
# [6] = test system: phospho-ERK in NCI-H460 (Q61H) cells; assay: as above; assay type: cell-based; details: Homo sapiens, NCI-H460, 3 h, 3 hours compound, phospho-ERK normalized to GAPDH
# Outline: as §1
# [7] = test system: phospho-ERK in PSN-1 (G12R) cells; assay: as above; assay type: cell-based; details: Homo sapiens, PSN1, 3 hours compound, phospho-ERK normalized to GAPDH
# Outline: as §1
# pERK in H460 cells = assay: Inhibition of KRas phosphorylation of ERK (Cisbio HTRF pERK assay); details: Homo sapiens, NCI-H460, read-out: Inhibition (HTRF IC50) of KRas-mediated Phosphorylation of ERK, H460
# Procedure: To harvest cells from flask using 0.05% Trypsin/EDTA solution. Add 10 mL of media to stop trypsinizing. Pipette the cells into a conical bottom 50 mL centrifuge tube and centrifuge 5 min×1000 rpm. • 2. Re-suspend the cell pellet in media, take a cell count, and then adjust the cell density using fresh media. • 3. Seed 6,000 cells into cell culture plate with 50 μL media. […] Incubate cell plate overnight in a 37° C., 5% CO2 incubator. • Compound titrations • 1. Use Tecan to complete the compound addition. Compounds start from 10 uM top, 3-fold dilution, and 10 doses. The final DMSO concentration is 0.8%. Dispensed 0.2 uM Trametinib as Min control. • 2. Incubate cell plate for 3 hrs in the incubator. • Detection with cisbio pERK HTRF kit • 1. […] At the end of the compound treatment, flick-off the media. • 3. Add 35 μL of lysis buffer per well using a Multidrop Combi. Then place on a plate agitator shaking at 300 rpm at 4° C. for 40 mins. • 4. Make up the HTRF antibody buffer. For each assay plate, mix 50 μL of d2-conjugate antibody with 950 μL of detection buffer. Similarly, mix 50 μL of Cryptate antibody with 950 μL of detection buffer. Then mix the two diluted antibodies together. • 5. Dispense 3.4 μL the antibody buffer to wells of an empty assay plate. Seal the plate and centrifuge plate 30 sec×1000 rpm. • 6. At the end of the 4° C. lysis, centrifuge the lysate plates 3 mins×1500 rpm. • 7. Use the Bravo to transfer 13.6 μL of lysate from cell culture plate to assay plate.
# Then incubate assay plate for 2 hrs at room temperature. […] At the end of incubation, read plate on the Envision after centrifuging plate 30 sec× • 1000 rpm.
# KRas G12V = KRas G12V (Homo sapiens, UniProt P01116, G12V); assay: biochemical;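 also: KRas binding measured by TR-FRET displacement at room temperature, IC50 fitted from percent of control values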
# Procedure: as §2
# pERK in PSN1 cells = assay: Inhibition of KRas phosphorylation of ERK (Cisbio HTRF pERK assay); details: Homo sapiens, PSN1, 3 h, read-out: Inhibition (HTRF IC50) of KRas-mediated Phosphorylation of ERK, PSN1
# pERK in H358 cells = assay: as above; details: Homo sapiens, NCI-H358, read-out: Inhibition (HTRF IC50) of KRas-mediated Phosphorylation of ERK, H358
# [8] = test system: phospho-ERK in NCI-H358 (G12C) cells; assay: Inhibition of KRas-mediated phosphorylation of ERK (in-cell western); assay type: cell-based; details: Homo sapiens, 3 hours compound, phospho-ERK normalized to GAPDH
# Outline: as §1
# KRas G12C = KRas G12C (Homo sapiens, UniProt P01116, G12C); assay: biochemical;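 also: binding to KRas assessed by TR-FRET displacement after one hour incubation at room temperature, potency fitted from percent-of-control values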
# KRas G12C, sequence (P01116 1-169 isoform P01116-2 G12C): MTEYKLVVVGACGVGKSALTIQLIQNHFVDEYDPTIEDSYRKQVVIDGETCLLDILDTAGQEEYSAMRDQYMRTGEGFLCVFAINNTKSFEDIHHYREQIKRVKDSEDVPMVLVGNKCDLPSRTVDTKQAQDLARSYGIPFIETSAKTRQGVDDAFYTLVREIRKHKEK
# Procedure: as §2
# KRas G12R, sequence (P01116 1-169 isoform P01116-2 G12R): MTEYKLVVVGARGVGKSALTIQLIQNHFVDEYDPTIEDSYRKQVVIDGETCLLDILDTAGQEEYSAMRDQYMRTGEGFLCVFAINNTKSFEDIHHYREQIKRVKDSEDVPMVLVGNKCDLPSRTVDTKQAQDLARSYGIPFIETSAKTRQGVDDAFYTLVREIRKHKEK
# KRas G12D, sequence (P01116 1-169 isoform P01116-2 G12D): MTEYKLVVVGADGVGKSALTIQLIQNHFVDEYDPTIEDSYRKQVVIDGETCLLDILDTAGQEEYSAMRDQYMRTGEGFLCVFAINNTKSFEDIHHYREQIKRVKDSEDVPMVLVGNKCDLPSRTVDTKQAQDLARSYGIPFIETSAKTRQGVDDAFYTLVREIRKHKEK
# KRas G12V, sequence (P01116 1-169 isoform P01116-2 G12V): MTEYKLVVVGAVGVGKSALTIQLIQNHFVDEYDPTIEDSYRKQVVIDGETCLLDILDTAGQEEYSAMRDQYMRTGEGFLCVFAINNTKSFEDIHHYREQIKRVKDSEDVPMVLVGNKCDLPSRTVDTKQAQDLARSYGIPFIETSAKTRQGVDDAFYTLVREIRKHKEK
SMILES,IC50 (pERK in H727 cells),IC50 (pERK in MKN1 cells),IC50 (pERK in HCT116 cells),IC50 (KRas G12R),IC50 (pERK in A549 cells),IC50 (KRas G12D),IC50 (pERK in ASPC1 cells),IC50 [1],IC50 [2],IC50 [3],IC50 [4],IC50 [5],IC50 [6],IC50 [7],IC50 (pERK in H460 cells),IC50 (KRas G12V),IC50 (pERK in PSN1 cells),IC50 (pERK in H358 cells),IC50 [8],IC50 (KRas G12C)
"CCc1c(F)ccc2cc(O)cc(-c3ncc4c(N5C[C@@H]6C[C@H](C5)[C@H](O)C6)nc(OC[C@@]56CCCN5C[C@H](F)C6)nc4c3F)c12 (single isomer, unassigned) [Example 140]",4 nM,1 nM,7 nM,≤ 2 nM,2 nM,≤ 2 nM,7 nM,28 nM,2 nM,9 nM,11 nM,27 nM,17 nM,1 nM,4 nM,≤ 2 nM,922 nM,–,–,–
"CCc1c(F)ccc2cc(O)cc(-c3ncc4c(N5CCC[C@]6(CC(=O)N6)C5)nc(OC[C@@]56CCCN5C[C@H](F)C6)nc4c3F)c12 (single isomer, unassigned) [Example 194]",34 nM,3 nM,686 nM,≤ 2 nM,63 nM,≤ 2 nM,20 nM,89 nM,7 nM,–,–,92 nM,65 nM,–,55 nM,≤ 2 nM,1350 nM,4 nM,–,–
CCc1c(F)ccc2cc(O)cc(-c3ncc4c(NC56CC(O)(C5)C6)nc(OC[C@@]56CCCN5C[C@H](F)C6)nc4c3F)c12 [Example 166],–,–,–,≤ 2 nM,–,7 nM,–,≥ 10000 nM,–,≥ 10000 nM,≥ 10000 nM,–,–,≥ 10000 nM,–,≤ 2 nM,–,–,328 nM,–
CCc1c(F)ccc2cc(O)cc(-c3ncc4c(N5CCC[C@@H](O)C5)nc(OC[C@@]56CCCN5C[C@H](F)C6)nc4c3F)c12 [Example 193],36 nM,7 nM,82 nM,–,44 nM,–,8 nM,133 nM,4 nM,–,63 nM,94 nM,44 nM,–,42 nM,–,3790 nM,–,41 nM,–
CCc1c(F)ccc2cc(O)cc(-c3ncc4c(N5CC6C(=O)NC(=O)C6C5)nc(OC[C@@]56CCCN5C[C@H](F)C6)nc4c3F)c12 (some centres unmarked) [Example 197],348 nM,23 nM,620 nM,≤ 2 nM,–,≤ 2 nM,57 nM,841 nM,11 nM,–,–,144 nM,293 nM,–,183 nM,≤ 2 nM,≥ 10000 nM,112 nM,–,–
CCc1c(F)ccc2cc(O)cc(-c3ncc4c(N5CCOC[C@@](C)(O)C5)nc(OC[C@@]56CCCN5C[C@H](F)C6)nc4c3F)c12 [Example 200],6 nM,2 nM,11 nM,–,5 nM,–,3 nM,67 nM,3 nM,3 nM,21 nM,47 nM,22 nM,–,5 nM,–,1010 nM,–,13 nM,–
"C#Cc1c(F)ccc2cc(O)cc(-c3ncc4c(N5CCOC[C@@](C)(O)C5)nc(OC[C@@]56CCCN5C[C@H](F)C6)nc4c3F)c12 [Example 201, (S)-4-(7-(8-ethynyl-7-fluoro-3-hydroxynaphthalen-1-yl)-8-fluoro-2-(((2R,7aS)-2-fluorohexahydro-1H-pyrrolizin-7a-yl)methoxy)pyrido[4,3-d]pyrimidin-4-yl)-6-methyl-1,4-oxazepan-6-ol]",42 nM,15 nM,187 nM,≤ 2 nM,223 nM,≤ 2 nM,23 nM,110 nM,2 nM,–,–,91 nM,100 nM,–,118 nM,≤ 2 nM,2390 nM,12 nM,–,–
"CCc1c(F)ccc2cc(O)cc(-c3ncc4c(N5CCC[C@@](C)(O)C5)nc(OCC5(CN6CCCC6)CC5)nc4c3F)c12 [Example 202, (3R)-1-[7-(8-ethyl-7-fluoro-3-hydroxy-1-naphthyl)-8-fluoro-2-[[1-(pyrrolidin-1-ylmethyl)cyclopropyl]methoxy]pyrido[4,3-d]pyrimidin-4-yl]-3-methyl-piperidin-3-ol]",33 nM,5 nM,47 nM,≤ 2 nM,9 nM,≤ 2 nM,7 nM,159 nM,3 nM,–,–,60 nM,74 nM,–,28 nM,≤ 2 nM,2490 nM,4 nM,–,≤ 2 nM
"CCc1c(F)ccc2cc(O)cc(-c3ncc4c(N5CCCC(O)C5)nc(OC[C@@]56CCCN5C[C@H](F)C6)nc4c3F)c12 (stereo partly drawn) [Example 299, 1-(7-(8-ethyl-7-fluoro-3-hydroxynaphthalen-1-yl)-8-fluoro-2-(((2R,7aS)-2-fluorohexahydro-1H-pyrrolizin-7a-yl)methoxy)pyrido[4,3-d]pyrimidin-4-yl)piperidin-3-ol]",–,–,–,–,–,–,–,126 nM,–,108 nM,333 nM,–,–,≥ 10000 nM,–,–,–,–,29 nM,–
"CCc1c(F)ccc2cc(O)cc(-c3ncc4c(N5CCC[C@@](C)(O)C5)nc(OC[C@@]56CCCN5[C@@H](CO)CC6)nc4c3F)c12 [Example 301, (R)-1-(7-(8-ethyl-7-fluoro-3-hydroxynaphthalen-1-yl)-8-fluoro-2-(((3R,7aS)-3-(hydroxymethyl)tetrahydro-1H-pyrrolizin-7a(5H)-yl)methoxy)pyrido[4,3-d]pyrimidin-4-yl)-3-methylpiperidin-3-ol]",199 nM,14 nM,456 nM,≤ 2 nM,–,≤ 2 nM,54 nM,520 nM,15 nM,–,–,216 nM,416 nM,–,216 nM,≤ 2 nM,3930 nM,46 nM,–,–
"CCc1c(F)ccc2cc(O)cc(-c3ncc4c(N5CCC[C@@](C)(O)C5)nc(OC[C@]56CCCN5[C@H](CO)CC6)nc4c3F)c12 [Example 302, (R)-1-(7-(8-ethyl-7-fluoro-3-hydroxynaphthalen-1-yl)-8-fluoro-2-(((3S,7aR)-3-(hydroxymethyl)tetrahydro-1H-pyrrolizin-7a(5H)-yl)methoxy)pyrido[4,3-d]pyrimidin-4-yl)-3-methylpiperidin-3-ol]",82 nM,3 nM,179 nM,≤ 2 nM,65 nM,≤ 2 nM,31 nM,360 nM,5 nM,–,–,152 nM,193 nM,–,120 nM,≤ 2 nM,2530 nM,26 nM,–,–
